From patent publication US6855549B1, “Methods and compositions for increasing the infectivity of gene transfer vectors” (The University of Iowa Research Foundation, priority 1998, dated 2005)
“Also recorded” adds a separate entry of the source. Read-outs that look alike come from different tables or passages of the source.

What was measured:
[1] = tested on: differentiated human airway epithelia; type: cell-based
[2] = tested on: differentiated human airway epithelia; type: cell-based; settings: VSV-G pseudotyped HIV-based lentivirus
lung epithelial layer = test: Fluorescent bead penetration of lung epithelium after EGTA instillation; type: in vivo, rat; settings: 3 or 12 mM EGTA, 100 μl into left lobe, one hour
Description: Preliminary studies were performed in rats to test the feasibility of using hypotonic solutions with EGTA to increase transepithelial permeability in vivo. 3 wk old rats were tracheotomized and a small caliber PE catheter inserted into the left lobe of the lung. 100 μl of 3 or 12 mM EGTA in water or PBS was mixed with […] fluorescent beads (a marker for viral particles) and instilled into the lungs. One hour later the animals were sacrificed and lung, tissue sections examined under fluorescence microscopy to determine if the fluorescent beads penetrated the epithelial layer. In the PBS control animal, fluorescent particles were only noted in the airway lunen. […] It also was asked if animals treated with EGTA/H2O developed changes in lung morphology. Animals received PBS or 12, 60, or 120 mM EGTA/water into the left lobe of the lung and 1 wk later were sacrificed and H & E stained lung tissues examined.

[3] = tested on: differentiated human airway epithelial cells; type: cell-based
[4] = tested on: rabbit tracheal epithelium; test: Tracheal transepithelial voltage (Vt) in anesthetized rabbits; type: in vivo
Description: Rabbit studies. The transepithelial electrical potential difference across the rabbit tracheal epithelium (Vt) was measured using a modification of previously described methods (Zabner et al., 1996). The reference electrode was a subcutaneous needle connected with sterile normal saline solution to a silver/silver chloride pellet. Adult New Zealand white rabbits (n=4/group) were anesthetized with 32 mg/kg ketamine, 5.1 mg/kg xylazine and 0.8 mg/kg acepromazine intramuscularly and placed with the head in the dependent position. An exploring electrode (pediatric size 8 Teflon-coated latex double lumen Foley catheter, modified Ruseh, Inc., Duluth, Ga.) was inserted into the tracheal lumen via a tracheotomy incision. One lumen of the catheter was filled with sterile normal saline solution and was connected to a silver/silver chloride pellet. Voltage was measured with a voltmeter connected to a strip chart recorder. The catheter was then left in that position for the entire recording period. The solutions were administered through the second lumen in the following order: 1) Normal saline for 5 min; 2) Sterile water with 10 mM EGTA for 10 min; 3) Normal saline with 10 mM EGTA for 5 min; and 4) Normal saline with 10 mM EGTA plus 100 μM amiloride for 5 min. Measurements of Vt were read by two investigators who were blinded to the treatment received. There wre no discrepancies in readings of greater than 2 mV between the investigators. Disruption of epithelial junctions was assessed by detecting a fall in […] Vt after perfusion with the chelator, and by the loss of amiloride-sensitive Vt after perfusion with the chelator solution.

[5] = tested on: rabbit tracheal epithelium; test: Retroviral or adenoviral gene transfer to rabbit tracheal epithelium after EGTA pretreatment; type: in vivo; settings: retroviral (MuLV, KGF pretreated) or adenoviral vector, three days
Description: Gene transfer to the rabbit tracheal epithelium In Vito. Adult New Zealand white rabbits were anesthetized with 32 mg/kg ketamnine, 5.1 mg/kg xylazine and 0.8 mg/kg acepromazine intramuscularly. Using sterile technique, a ventral midline incision was made, exposing the trachea for tracheotomy. A ˜1.5 cm tracheal segment cephalad to the tracheotomy was isolated, and cannulated on each end with PE 330 tubing (Clay Adams, Becton Dickinson). The tracheal segment was first rinsed and then filled with a solution of 12 mM EGTA in water for 45 min. The EGTA solution was removed, and as replaced with 300 μl of retrovirus (titer 3×10^9 cfu/ml) or adenovirus (titer 1×10^10 pfu/ml) vector. In control animals, saline was substituted for water and EGTA treatment. Animals that received the MuLV retrovirus were pretreated with keratinocyte growth factor (KGF) prior to gene transfer to stimulate epithelial proliferation (˜5 mg/kg intravenously and 600 μg via nasal instillation for 3 doses given 36, 24 and 12 hr preceding the procedure) (Wang et al., 1998; Wang et al., 1999). The vector solution was left in place for an additional 45 min. and then the cannulae were removed, the incisions closed, and animals were allowed to recover. Three days later, animals were sacrificed, and the tissues studied for β-galactosidase expression.

[6] = tested on: polarized human bronchial epithelial cells; test: Transepithelial resistance of polarized bronchial cultures after hypotonic EGTA; type: cell-based; settings: 3 mM EGTA-H2O, 10 min, 37° C., immediate
Description: For the UV irradiation studies, Millicell inserts were put transiently into empty 100-mm tissue culture plates (apical side up) and exposed to 25 J/m^2 of UV light (254 nm). After irradiation, the Millicell inserts were quickly returned to plates containing Ultraser G culture medium on the basolateral side. Infections with rAAV were performed immediately following UV irradiation by application of 5×10^9 rAAV particles in 100 μl to either the apical or basolateral side of the support membrane as described above. Keratinocyte growth factor (KGF) treatment was performed at a final concentration of 100 ng/ml by addition to the basolateral culture medium for two sequential 24-hr incubations prior to AAV infection. Transient disruption of tight junctions was achieved by treating polarized cells with 3 mM EGTA in water for 10 min. After hypotonic EGTA treatment, cultures were washed twice with culture medium and infected with 5×10^9 rAAV particles in […] on either the apical or basolateral side of support membranes.
The transepithelial resistance of primary airway cultures was monitored with an ohm meter (EVOM; World Precision Instruments, Sarasota Fla.), as previously described (Wang et al., 1998). […] Electrodes were placed in both the mucosal and serosal compartments of the Millicell inserts and the resistance across the epithelia was recorded.

[7] = vector to apical surface with EGTA in vector buffer, 200 cells counted

O=C(O)CN(CCOCCOCCN(CC(=O)O)CC(=O)O)CC(=O)O [EGTA]
effect on proliferation ([1]; application of H2O or EGTA to epithelia, control studies): had no effect on proliferation
β-gal positive cells ([1]; pretreated with combination of water and EGTA 20 min, then vector, mean±SE, n=9): 20.3±2.5%
β-gal positive cells ([1]; sequential water then EGTA in water 10 min each, then vector): 8±1.3%
share of β-gal positive cells that are basal cells [1, 7]: 36%
share of β-gal positive cells that are ciliated cells [1, 7]: 28%
share of β-gal positive cells that are intermediate cells [1, 7]: 36%
β-gal positive cells ([1]; water and EGTA 20 min, then vector containing EGTA, 3 days after delivery, mean±SE, n=9): 34.3±5.4%
gene transfer, apical surface of quiescent cells with EGTA/hypotonic buffer [2]: gene transfer was enhanced
penetration of 100 nM fluorescent beads into epithelial layer (lung epithelial layer): beads were seen throughout the cell layer and close to the basement membrane
effect of EGTA solution alone on cell proliferation (BrdU histochemistry) [3]: had no effect on cell proliferation
amiloride-sensitive Vt after hypotonic/EGTA treatment ([4]; 100 μM amiloride): there was no residual amiloride-sensitive Vt; also recorded: amiloride had no effect on Vt
tracheal Vt ([4]; hypotonic solution with 10 mM EGTA then saline with 10 mM EGTA): caused a significant fall in Vt
gene transfer to tracheal epithelium after pretreatment with 12 mM EGTA in water [5]: transduced cells throughout the tracheal epithelium
decrease in transepithelial resistance [6]: greater than 10 fold
